Patent US20240287470A1 (priority 2023, published 2024)
Where a name gives a salt, the structure may show the parent alone. Read-outs that look alike come from different tables or passages of the source.

Key:
HEK293 cells [1] = format: cell-based; conditions: detergent 0.5% w/v, then 0.2% DB
[2] = tested on: pseudo rabies virus (PRV)
[3] = tested on: Murine leukemia virus (MuLV)
[4] = cited from earlier work
HEK293 cells [5] = experiment: CTAB modifier screen: vg recovery in clarified lysate and loose resin affinity elution; format: cell-based; conditions: LCD, 0.5% w/v CTAB
Description: The modifiers were selected based on their potential to interfere with and inhibit non-specific binding of rAAV3B capsids to heparin sulfate proteoglycan receptors on cells and cell lysis debris. Using 10 mL cell culture aliquots, modifiers were delivered to the culture at the concentrations shown in Table 3 and mixed for 10 min at room temperature (RT) prior to addition of the CTAB lysis detergent. CTAB was added to a final concentration of 0.5% w/v. Fold improvement in productivity was calculated by dividing total vector genomes (vgs) measured by qPCR quantification of copies of the vector transgene in product produced by a test condition over total vgs produced using 0.5% octoxynol-9 and 0.2% DB as the control lysis and flocculation condition. Total vgs were measured in the clarified lysate and in eluate produced by loose resin affinity purification of the clarified lysate. Conditions which produced greater than 2-fold improvement are highlighted in bold in Table 3.

HEK293 cells [6] = experiment: CHAPS evaluated at larger scale (1 L bioreactor); format: cell-based; conditions: final concentration 0.5% w/v
Description: CHAPS was identified as a potential detergent candidate in the small scale screens and was evaluated at a larger scale (1 L bioreactor) at a final concentration of 0.5% w/v.

[7] = No modifier, LCD (approximately 12E+6 cells/mL), rAAV3B vector
[8] = 0.5% octoxynol-9, 90 mins, value from large volume plating
[9] = 0.025% CTAB, 90 mins, value from titer plate
[10] = 0.05% CTAB, 90 mins, value from large volume plating
[11] = 0.25% CTAB, 90 mins, value from large volume plating
[12] = modifier 80 μM CSE (chondroitin sulfate E)
[13] = modifier 80 μM SOS (sucrose octasulfate)
[14] = modifier 400 ug/mL low molecular weight (LMW) Dextran

With CCCCCCCCCCCCOS(=O)(=O)[O-].[Na+] [SDS, sodium dodecyl sulfate] the “Fold improvement over octoxynol-9 and DB control (capsid recovery in clarified lysate)” value (“Fold improvement” for short) (HEK293 cells [1]; 0.2M Arginine modifier, LCD) was 0.9 fold, the “Fold improvement” value (HEK293 cells [1]; 0.7M NaCl modifier, LCD) was 0.2 fold and the “Fold improvement” value (HEK293 cells [1]; [7]) was 0.1 fold.

In the case of C[C@H](CCC(=O)O)[C@H]1CC[C@H]2[C@@H]3CC[C@@H]4C[C@H](O)CC[C@]4(C)[C@H]3C[C@H](O)[C@]12C [DOC, deoxycholic acid sodium salt], the “Fold improvement” value (HEK293 cells [1]; [7]) is reported as 0.1 fold.

In the case of Octoxynol-9 [reference compound], the “Process demonstrated viral removal or inactivation (Log reduction >1)” value ([2]; 0.5% octoxynol-9, 90 mins) is reported as “Demonstrated inactivation”, the “Minimum reduction values Run 1” value [2, 8] is reported as at least 4.43 ± 0.28 Log and the “Minimum reduction values Run 2” value [2, 8] is reported as at least 4.19 ± 0.18 Log. For the same compound, the “Minimum reduction values Run 1” value [3] was at least 4.43 ± 0.25 Log, the “Minimum reduction values Run 2” value [3] was at least 4.49 ± 0.27 Log and the “Process demonstrated viral removal or inactivation (Log reduction >1)” value [3] was “Demonstrated inactivation”.

For CCCCCCCCCCCC(=O)OCCOCCOCCOCCOCCOCCOCCOCCOCCOCCOCCOCCOCCOCCOCCOCCOCCOCCOCCOCCOCC(OCCOCCOCCOCCOCCOCCOCCOCCOCCOCCOCCOCCOCCOCCOCCOCCOCCOCCOCCOCCO)C1OCC(OCCOCCOCCOCCOCCOCCOCCOCCOCCOCCOCCOCCOCCOCCOCCOCCOCCOCCOCCOCCO)C1OCCOCCOCCOCCOCCOCCOCCOCCOCCOCCOCCOCCOCCOCCOCCOCCOCCOCCOCCOCCO (stereo not shown) [PS20, polysorbate 20], the “Fold improvement” value (HEK293 cells [1]; 0.2M Arginine modifier, LCD) was 1.8 fold, the “Fold improvement” value (HEK293 cells [1]; 0.7M NaCl modifier, LCD) was 0.7 fold and the “Fold improvement” value (HEK293 cells [1]; [7]) was 0.5 fold.

For CCCCCCCCCCCCCCCC[N+](C)(C)C.[Br-] [CTAB, cetyltrimethylammonium bromide], the “Process demonstrated viral removal or inactivation (Log reduction >1)” value ([2]; 0.025% CTAB, 90 mins) was “Did not demonstrate inactivation”, the “Minimum reduction values Run 1” value [2, 9] was 0.71 ± 0.44 Log and the “Minimum reduction values Run 2” value [2, 9] was 0.71 ± 0.39 Log. For the same compound, the “Process demonstrated viral removal or inactivation (Log reduction >1)” value ([2]; 0.05% CTAB, 90 mins) was “Demonstrated inactivation”, the “Minimum reduction values Run 1” value [2, 10] was at least 4.31 ± 0.27 Log and the “Minimum reduction values Run 2” value [2, 10] was at least 4.67 ± 0.21 Log. The “Process demonstrated viral removal or inactivation (Log reduction >1)” value ([2]; 0.25% CTAB, 90 mins) was “Demonstrated inactivation”, the “Minimum reduction values Run 1” value [2, 11] was at least 4.73 ± 0.25 Log and the “Minimum reduction values Run 2” value [2, 11] was at least 4.73 ± 0.31 Log. For the same compound, the critical micelle concentration ([4]; in water in the presence of MgSO4) was “about 0.63 mM”, the critical micelle concentration ([4]; in water) was “about 1.04 mM” and the “Fold improvement” value (HEK293 cells [1]; No modifier, HCD (approximately 18E+6 cells/mL), rAAV3B vector) was 2.8 fold. The “Fold improvement” value (HEK293 cells [1]; [7]) was 1.6 fold, the “fold productivity over octoxynol-9/DB control - affinity elution” value (shortened to “fold productivity … - affinity elution”) (HEK293 cells [5]; [12]) was 0.05 fold and the “fold productivity over octoxynol-9/DB control - clarified lysate” value (shortened to “fold productivity … - clarified lysate”) (HEK293 cells [5]; [12]) was 1.22 fold. For the same compound, the “fold productivity … - affinity elution” value (HEK293 cells [5]; [13]) was 3.20 fold, the “fold productivity … - clarified lysate” value (HEK293 cells [5]; [13]) was 2.61 fold and the “fold productivity … - affinity elution” value (HEK293 cells [5]; [14]) was 1.20 fold. The “fold productivity … - clarified lysate” value (HEK293 cells [5]; [14]) was 0.14 fold, the “fold productivity … - affinity elution” value (HEK293 cells [5]; modifier 6 mM ZnSO4) was 2.41 fold and the “fold productivity … - clarified lysate” value (HEK293 cells [5]; modifier 6 mM ZnSO4) was 1.86 fold. The “fold productivity … - affinity elution” value (HEK293 cells [5]; modifier 50 mM MgSO4) was 7.77 fold, the “fold productivity … - clarified lysate” value (HEK293 cells [5]; modifier 50 mM MgSO4) was 3.21 fold and the “fold productivity … - affinity elution” value (HEK293 cells [5]; no modifier) was 3.81 fold. For the same compound, the “fold productivity … - clarified lysate” value (HEK293 cells [5]; no modifier) was 2.81 fold.

In the case of C[C@H](CCC(=O)NCCC[N+](C)(C)CCCS(=O)(=O)[O-])[C@H]1CC[C@H]2[C@@H]3[C@H](O)C[C@@H]4C[C@H](O)CC[C@]4(C)[C@H]3C[C@H](O)[C@]12C [CHAPS, 3-[(3-cholamidopropyl)dimethylammonio]-1-propanesulfonate], the “Fold improvement” value (HEK293 cells [1]; 0.2M Arginine modifier, LCD) is reported as 1.0 fold, the “Fold improvement” value (HEK293 cells [1]; 0.7M NaCl modifier, LCD) is reported as 1.6 fold and the “Fold improvement” value (HEK293 cells [1]; [7]) is reported as 2.1 fold. For the same compound, the “recovery improvement at larger scale” value (HEK293 cells [6]) was “failed to provide the same recovery improvement at large scale as at small scale”.

In the case of CCCCCCCCCCCC(=O)N(C)CC(=O)[O-].[Na+] [sarkosyl], the “Fold improvement” value (HEK293 cells [1]; [7]) is reported as 0.3 fold.
